Here are results for three compounds from patent publication EP3097904A1, “DEPIGMENTING AGENTS TO LIGHTEN THE SKIN” (priority 2015, dated 2016).

The test system of data set [1] is normal murine melanocytes. As to the kind of experiment: Melanin content in normal murine melanocytes (basal). In kind it is cell-based. Particulars: 48 hours; for melanin content: increasing doses, expressed as percentage of control (Figures 1, 2). The protocol:
(§1) Normal murine melanocytes were seeded and treated for 48 hours with increasing doses of umbelliprenin, 100µM of kojic acid (KA) or carrier solvent (DMSO). […] The cell pellet was washed twice with phosphate buffer saline, transferred in an Eppendorf vial and centrifuged at 5000 g for 5 minutes at 4°C. The supernatant was discarded. 200 µL of water and 1 mL of EtOH/Ether (1/1) were added to precipitate melanin. The mixture was incubated for 15 minutes at room temperature, centrifuged at 5000 g for 5 minutes and the supernatant was discarded. The precipitate was solubilized by 300 µL of a mixture of aqueous sodium hydroxide (1 M)/DMSO 90/10 after heating at 80°C for 1 hour. The absorbance was measured at 405 nm. The melanin content was expressed as a percentage of control (=100%).
Normal murine melanocytes were seeded and treated for 48 hours with increasing doses of PBPE, tesmilifene (Tes) or carrier solvent (ethanol).
Normal murine melanocytes were seeded and treated for 48 hours with fixed doses of PBPE, tesmilifene, umbelliprenin or a combination of those, or carrier solvent (DMSO for umbelliprenin, ethanol for tesmilifene or PBPE and EtOH/DMSO 1/1 for the combination).
(§2) The cell pellet was washed twice with phosphate buffer saline, transferred in an Eppendorf vial and centrifuged at 5000 g for 5 minutes at 4°C. The supernatant was discarded. Cell lysis was performed with an aqueous solution of sodium deoxycholate 0.5% (1 mL per cell pellet). The suspension was incubated at 0°C for 15 minutes and then 3 mL of a freshly prepared solution of L-DOPA (0.1% w/w) in phosphate buffer at 0.1 M (pH 6.8) was added to the cell lysate. The mixture was incubated at 37°C for 10 min. Tyrosinase activity was measured with a spectrophotometer to quantify the oxidation of L-DOPA to DOPAchrome. The absorbance was measured at 475 nm. The tyrosinase activity was expressed as a percentage of control (=100%). Control corresponds to the tyrosinase activity measured in the cell lysate from normal murine melanocytes treated with carrier solvent.

For data set [2], the system named is normal murine melanocytes treated with alpha melanocyte stimulating hormone (α-MSH). In words: Melanin content in melanocytes treated with α-MSH. In kind it is cell-based. Particulars: 48 hours, α-MSH 100 nM; PBPE 20 µM, tesmilifene 10 µM, umbelliprenin 40 µM (Figure 3). The procedure:
as §1

Data set [3] concerns normal murine melanocytes exposed to ultraviolet (UV-B) irradiation. In words: Melanin content in melanocytes exposed to UV-B irradiation. In kind it is cell-based. Particulars: UV-B 20 mJ/cm^2; PBPE 20 µM, tesmilifene 10 µM, umbelliprenin 40 µM (Figure 4). The protocol:
as §1

The subject of data set [4] is Tyrosinase. In words: Tyrosinase activity in lysates of treated melanocytes (L-DOPA oxidation). Particulars: 48 hours; PBPE 20 µM, tesmilifene 10 µM, umbelliprenin 40 µM; cell lysate, percentage of control (Figure 6). In kind it is cell-based, murine. The protocol:
as §2, with “Tyrosinase activity was measured using a previously reported procedure (Ando H, J. Lipid Res., 1999, 40, p. 1312). […] The cell” for “The cell”, “carrier solvent. Melanin content of treated murine melanocytes was also measured as described in example 4.” for “carrier solvent.”

The test system of data set [5] is melanogenic genes (Tyrosinase, Mitf, TRP-1 and TRP-2). As to the kind of experiment: Expression of genes encoding melanogenic proteins (RT-qPCR). In kind it is cell-based, murine. Particulars: 48 hours; PBPE 20 µM, tesmilifene 10 µM, umbelliprenin 40 µM (Figure 8). On the technique in general: Quantitative PCR measures a nucleic acid by following its amplification.
Description: We then performed RNA extraction. We added Trizol® (1 ml) on treated cells. After incubation (5 minutes at room temperature), we transferred the cells suspension into Eppendorf vial. Chloroform (200 µl at 4°C) was added, the mixture was manually stirred for 15 seconds, incubated for 5 minutes at room temperature and then centrifuged at 16000 g for 10 minutes at 4°C. Aqueous colorless layer was collected and isopropanol (500 µL at -20°C) was added. The mixture was manually stirred for 15 seconds, incubated for 15 minutes at room temperature and the centrifuged at 16200 g for 10 minutes at 4°C. The supernatant was discarded and the precipitate was washed with 1 mL of EtOH/H2O (3/1) at -20°C. The mixture was centrifuged at 16000 g for 10 minutes at 4°C, the supernatant discarded and the pellet was allowed to dry for 10 minutes at room temperature. The pellet was dissolved in RNAse-free water (30 µL). The amount and purity of RNA was determined by measuring the absorbance at 230, 260 and 280 nm with a nanodrop ND-1000 spectrophotometer (Thermo Scientific) according to the manufacturer's instructions.
We then performed RT-qPCR experiment. We prepared a mixture containing RNA (1 µg), reverse transcriptase (1 µL), the reaction mixture « iScript®5x » (4 µL) and RNAse-free water (qsp 20 µl). The mixture was vortexed, centrifuged for few seconds and then introduced into a thermocycler. Reverse transcription was performed using the following program : 5 min at 25°C, 30 min at 42°C and then 5 min at 85°C. Eppendorf vial was maintained at 4°C until the beginning of the qPCR experiment. We then examined the expression of melanogenic genes (Tyrosinase, Mitf, TRP-1 and TRP-2) and housekeeping genes (glyceraldehyde 3-phosphate dehydrogenase and Cyclophiline A1) by qPCR. For this purpose, cDNA was diluted with RNAse-free water (180 µL) and then we prepared a mixture containing: primers, Syber Green® and RNAse-free water. We mixed in a 96-well plate cDNA (5 µL) and the mixture (20 µL). […]

Data set [6] deals with normal murine melanocytes. As to the kind of experiment: Cytotoxicity, trypan blue cell viability. Particulars: 24, 48 and 72 hours; PBPE 20 µM, tesmilifene 10 µM, umbelliprenin 40 µM (Figure 9).
Description: Normal murine melanocytes were seeded and treated for 24, 48 and 72 hours with PBPE (20 µM), tesmilifene (10 µM), umbelliprenin (40 µM) or carrier solvent (DMSO for umbelliprenin and ethanol for tesmilifene or PBPE). Cells were detached by trypsinization, collected in phosphate buffer saline and centrifuged at 1500 rpm for 5 minutes at 4°C. Cells pellets were resuspended in the trypan blue solution (0.25%, w/v in PBS) and counted in a Malassez cell under a light microscope. The percentage of cell viability was calculated using the following formula: % cell viability = [1-(blue cells/total cells)] x 100 [formula]
Data set [7] relates to normal murine melanocytes. As to the kind of experiment: Whitening effect on melanocyte cell pellet (photograph). In kind it is cell-based. Particulars: umbelliprenin 40 µM, 48 hours (Figure 7). The procedure: Normal murine melanocytes were seeded and treated for 48 hours with umbelliprenin (40 µM) or carrier solvent (DMSO). […] Cells pellet was washed with phosphate buffer saline, centrifuged and the supernatant was discarded. Cell pellets were then photographed.

[8] abbreviates: PBPE 20 µM, tesmilifene 10 µM, umbelliprenin 40 µM vs kojic acid 100 µM (Figure 6).

As for `c1ccc(Cc2ccc(OCCN3CCCC3)cc2)cc1` [PBPE], the melanin content entry in data set [1] was “significantly decrease melanin content in a dose dependent manner”. The “diminution of melanin content compared with kojic acid” value (“diminution … compared with kojic acid” for short) in data set [1] (setting [8]) is recorded as “higher”. For the same compound, the “melanin content in presence of α-MSH” value in data set [2] is given as “inhibits the melanogenic effect of α-MSH”. Moreover, the “melanin content after UV-B irradiation” value in data set [3] was “inhibits the melanogenic effect of UV-B”. In data set [4], the tyrosinase activity entry is given as “decrease tyrosinase activity levels”. For the same compound, the “expression of melanogenic genes” value in data set [5] is listed as “this effect was not observed”. Besides, in data set [6], the cell viability entry is on record as “no significant impact”.
As for `CCN(CC)CCOc1ccc(Cc2ccccc2)cc1` [tesmilifene], the melanin content result in data set [1] is “significantly decrease melanin content in a dose dependent manner”. Moreover, the “diminution … compared with kojic acid” value in data set [1] (setting [8]) was “higher”. Also, in data set [2], the “melanin content in presence of α-MSH” value is given as “inhibits the melanogenic effect of α-MSH”. The “melanin content after UV-B irradiation” value in data set [3] is on record as “inhibits the melanogenic effect of UV-B”. The tyrosinase activity result in data set [4] is recorded as “decrease tyrosinase activity levels”. Also, the “expression of melanogenic genes” value in data set [5] is “this effect was not observed”.
For the compound `CC(C)=CCC/C(C)=C/CC/C(C)=C/COc1ccc2ccc(=O)oc2c1` [umbelliprenin], the melanin content entry in data set [1] was “significantly decreases melanin content in a dose dependent manner”. For the same compound, the “diminution … compared with kojic acid” value in data set [1] (setting [8]) and in data set [1] (increasing doses of umbelliprenin vs 100µM kojic acid (Figure 1)) was “higher” each time. In data set [2], the “melanin content in presence of α-MSH” value is recorded as “inhibits the melanogenic effect of α-MSH”. Moreover, the “melanin content after UV-B irradiation” value in data set [3] is “inhibits the melanogenic effect of UV-B”. The tyrosinase activity result in data set [4] is “decrease tyrosinase activity levels”. Further, the “appearance of melanocytes (cell pellet) versus carrier solvent” value in data set [7] is on record as “much lighter”. The “expression of melanogenic genes” value in data set [5] is listed as “significantly repressed”.
